Test results reported in patent US8927280B2, “Compositions and methods for promoting the generation of definitive endoderm” (President and Fellows of Harvard College, priority 2009, dated 2015).

Test system: gut tube of E8.75 mouse embryos
Experiment: Injection of compound induced endoderm into gut tube of E8.75 mouse embryos, ex vivo embryo culture
Format: in vivo
Settings: for incorporation of induced endodermal cells into gut tube (in words): FoxA2, Cldn6 and YFP staining; for embryos in which induced cells integrated into the gut: cells treated 6 days, injected into E8.75 embryos, 24-30 hrs ex vivo culture
Description: Mouse E8.5 ICR embryos were dissected in Hanks Balanced Salt Solution and cultured in the DMEM/F12 (Invitrogen) media supplemented with 50% rat serum (Valley Biomedical), penicillin, streptomycin, glutamine at 37° C. for 20-24 hrs. The YFP mouse ES cells were cultured in the presence of hit compounds for 6 days to induce endoderm formation and then cells were dissociated with trypsin and approx. 100 000 cells were injected into gut tube of E8.75 embryos. Following injections, embryos were transferred to rotating bottle culture unit and were then cultured in media (1.5-2 ml per embryo) as above under humidified conditions at 40% O2, 5% CO2, 55% N2, and 37° C. After 30 hrs culture, embryos were fixed in 4% paraformaldehyde in PBS, embedded in tissue-tek and cryosections were stained with antibodies against Cld6, FoxA2 an YFP.
For chemically derived endoderm to be useful, it is important to determine its developmental potential, beyond the expression of endodermal markers. The ultimate goal is to direct the cells to form functional beta cells. To begin to address this possibility and functional potential of derived populations, mouse ES cells ubiquitously expressing enhanced yellow fluorescent protein (EYFP) (Hadjantonakis et al., 2002) were induced to form endoderm with IDE1, IDE2, or DMSO (control). At day 6 of treatment, the inventors dissociated and injected the cells into the gut tube (a derivative of endoderm) of live E8.75 embryos. The lumen of the gut tube can be accessed prior to the completion of embryonic turning and gut tube closure and therefore provides a developmental window for functional assessment of ES-derived endoderm cells. Chemically derived endoderm was injected into the primitive gut tube at the anterior and posterior intestinal portals. At this time the gut tube is still open and anterior intestinal portal is accessible (FIG. 6A). The embryos were cultured ex vivo for 24-30 hrs during which time the lateral walls of the embryonic gut fold ventrally and the gut tube closes, around E9.5. […] Cells induced by IDE1 treatment integrated into the gut, in 8 out of 35 cases, and in 7 out of 29 embryos for IDE2. Conversely, DMSO (control) treated cells never integrate into the developing gut tube (0/10 and 0/11, respectively) and instead remain in the lumen (FIG. 6B).

Compound | incorporation of induced endodermal cells into gut tube (in words) | embryos in which induced cells integrated into the gut
O=C(O)CCCCCC(=O)N/N=C/c1ccccc1C(=O)O [IDE1] | incorporate into gut tube and show expression of gut tube markers | 8 out of 35
O=C(O)CCCCCC(=O)NN=C1CCCC1 [IDE2] | incorporate into gut tube and show expression of gut tube markers | 7 out of 29
